Where “and” joins values, the source holds several entries; their conditions need not be identical. Identical values can stand only once. Toxic doses and inconclusive results are not listed. Rule as the data show it: active = T/C of 150% or more; inactive = T/C below 125%.
System: L1210 leukemia ip in BDF1 mice, survival T/C
Experiment: NCI In Vivo Anticancer Drug Screen. Data for tumor model L1210 Leukemia (intraperitoneal) in B6D2F1 (BDF1) mice
Conditions: endpoint: mean survival time, higher = longer survival
Summary of the method: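 Value reflects the ratio of survival in compound-treated mice to survival in vehicle-treated controls, with both groups carrying the same transplanted tumor.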

[1] = dose: 50.0 mg/kg/injection, schedule: Q01DX009 (ip), vehicle: Klucel (hydroxypropylcellulose) (HPC)
[2] = dose: 100.0 mg/kg/injection, schedule: Q01DX001 (ip), vehicle: saline
[3] = dose: 200.0 mg/kg/injection, schedule: Q01DX001 (ip), vehicle: saline
[4] = dose: 100.0 mg/kg/injection, schedule: Q04DX002 (ip), vehicle: Klucel (hydroxypropylcellulose) (HPC)
[5] = dose: 100.0 mg/kg/injection, schedule: Q01DX009 (ip), vehicle: Klucel (hydroxypropylcellulose) (HPC)
[6] = dose: 100.0 mg/kg/injection, schedule: Q04DX003 (ip), vehicle: Klucel (hydroxypropylcellulose) (HPC)
[7] = dose: 200.0 mg/kg/injection, schedule: Q01DX009 (ip), vehicle: Klucel (hydroxypropylcellulose) (HPC)
[8] = dose: 200.0 mg/kg/injection, schedule: Q04DX003 (ip), vehicle: Klucel (hydroxypropylcellulose) (HPC)
[9] = dose: 400.0 mg/kg/injection, schedule: Q01DX009 (ip), vehicle: Klucel (hydroxypropylcellulose) (HPC)
[10] = dose: 400.0 mg/kg/injection, schedule: Q04DX003 (ip), vehicle: Klucel (hydroxypropylcellulose) (HPC)
[11] = dose: 50.0 mg/kg/injection, schedule: Q01DX001 (ip), vehicle: saline
[12] = dose: 400.0 mg/kg/injection, schedule: Q01DX001 (ip), vehicle: saline

Measured: T/C

CCN(CC)CCCC(C)Nc1cc(C)nc(/N=C(\N)Nc2ccc(Cl)c(Cl)c2)n1 (stereo not given)
inactive: dose: 25.0 mg/kg/injection, schedule: Q01DX009 (ip), vehicle: Klucel (hydroxypropylcellulose) (HPC) 96 % of control | [1] 94 % of control | dose: 100.0 mg/kg/injection, schedule: Q01DX001 (ip), vehicle: Klucel (hydroxypropylcellulose) (HPC) 92 % of control

Cn1c(=O)cc(C=Nc2ccc(O)cc2)c2ccccc21
inactive: [2] 94 % of control | [3] 98 % of control

CC(=O)CC(=O)NCc1cccc(C)n1
inactive: dose: 100.0 mg/kg/injection, schedule: Q04DX003 (ip), vehicle: saline 114 % of control | dose: 200.0 mg/kg/injection, schedule: Q04DX003 (ip), vehicle: saline 98 % of control | dose: 400.0 mg/kg/injection, schedule: Q04DX003 (ip), vehicle: saline 103 % of control

O=C1NC2C3C=CC(C3)C12 (stereo not given)
inactive: dose: 25.0 mg/kg/injection, schedule: Q04DX002 (ip), vehicle: Klucel (hydroxypropylcellulose) (HPC) 114 % of control | dose: 50.0 mg/kg/injection, schedule: Q04DX002 (ip), vehicle: Klucel (hydroxypropylcellulose) (HPC) 93 % of control | [4] 119 % of control and 86 % of control

O=C(COc1ccc(Cl)cc1Cl)NCc1ccc(Cl)cc1
inactive: [5] 91 % of control | [6] 112 % of control | [7] 96 % of control | [8] 96 % of control | [9] 94 % of control | [10] 95 % of control

CCCC(CCC)CCCCC(CCC)CCC
inactive: dose: 75.0 mg/kg/injection, schedule: Q01DX001 (ip), vehicle: saline 96 % of control | dose: 150.0 mg/kg/injection, schedule: Q01DX001 (ip), vehicle: saline 96 % of control | dose: 300.0 mg/kg/injection, schedule: Q01DX001 (ip), vehicle: saline 94 % of control

CCCCCCCCCN=C(N)CSSCC(N)=NCCCCCCCCC
inactive: dose: 1.0 mg/kg/injection, schedule: Q01DX009 (ip), vehicle: Klucel (hydroxypropylcellulose) (HPC) 109 % of control | dose: 1.0 mg/kg/injection, schedule: Q04DX002 (ip), vehicle: Klucel (hydroxypropylcellulose) (HPC) 101 % of control | dose: 2.0 mg/kg/injection, schedule: Q01DX009 (ip), vehicle: Klucel (hydroxypropylcellulose) (HPC) 111 % of control | dose: 2.0 mg/kg/injection, schedule: Q04DX002 (ip), vehicle: Klucel (hydroxypropylcellulose) (HPC) 116 % of control | dose: 4.0 mg/kg/injection, schedule: Q01DX009 (ip), vehicle: Klucel (hydroxypropylcellulose) (HPC) 109 % of control | dose: 4.0 mg/kg/injection, schedule: Q04DX002 (ip), vehicle: Klucel (hydroxypropylcellulose) (HPC) 116 % of control

Cn1c(N)c(N=Nc2ccc(S(=O)(=O)Nc3ncccn3)cc2)c(=O)n(C)c1=O
inactive: dose: 100.0 mg/kg/injection, schedule: Q01DX001 (ip), vehicle: carboxymethylcellulose (CMC) 98 % of control | dose: 200.0 mg/kg/injection, schedule: Q01DX001 (ip), vehicle: carboxymethylcellulose (CMC) 98 % of control | dose: 400.0 mg/kg/injection, schedule: Q01DX001 (ip), vehicle: carboxymethylcellulose (CMC) 95 % of control

CC(=O)OCCN1CC1
inactive: dose: 3.12 mg/kg/injection, schedule: Q01DX009 (ip), vehicle: saline 116 % of control | dose: 6.25 mg/kg/injection, schedule: Q01DX009 (ip), vehicle: saline 122 % of control | dose: 12.5 mg/kg/injection, schedule: Q01DX009 (ip), vehicle: saline 118 % of control

O=C(/C=C/c1ccc2c(c1)OCO2)c1ccccc1
inactive: [1] 97 % of control | [5] 103 % of control | [6] 102 % of control | [7] 106 % of control | [8] 93 % of control | [9] 103 % of control | [10] 98 % of control

Cc1[nH]c(N)nc(=S)c1CCCNc1ccc(C(=O)NC(CCC(=O)O)C(=O)O)cc1 (stereo not given)
inactive: [11] 104 % of control | [2] 98 % of control | [5] 93 % of control | [6] 93 % of control | [3] 101 % of control | [7] 104 % of control | [8] 93 % of control | [12] 98 % of control | [9] 98 % of control | [10] 88 % of control

CCC(CC)NC(C)CO (stereo not given)
inactive: dose: 75.0 mg/kg/injection, schedule: Q01DX001 (ip), vehicle: acid diluted with saline 105 % of control | dose: 150.0 mg/kg/injection, schedule: Q01DX001 (ip), vehicle: acid diluted with saline 103 % of control | dose: 300.0 mg/kg/injection, schedule: Q01DX001 (ip), vehicle: acid diluted with saline 103 % of control

CCCCCCCCCCCCCCCCCc1cc(=O)n(-c2ccc(NC(=O)CCC(=O)OC)cc2)n1C
inactive: dose: 12.5 mg/kg/injection, schedule: Q04DX003 (ip), vehicle: Klucel (hydroxypropylcellulose) (HPC) 93 % of control | dose: 50.0 mg/kg/injection, schedule: Q04DX003 (ip), vehicle: Klucel (hydroxypropylcellulose) (HPC) 86 % of control

Cn1c(=O)c2[nH]c(C3CC3)nc2n(C)c1=O
inactive: [11] 113 % of control | [2] 101 % of control | [3] 98 % of control

Cc1cc(C)cc(-n2cccc2C(=O)O)c1
inactive: [4] 89 % of control | dose: 200.0 mg/kg/injection, schedule: Q04DX002 (ip), vehicle: Klucel (hydroxypropylcellulose) (HPC) 86 % of control | dose: 400.0 mg/kg/injection, schedule: Q04DX002 (ip), vehicle: Klucel (hydroxypropylcellulose) (HPC) 96 % of control

CC(CCc1ccc(O)cc1)OC=O (stereo not given)
inactive: dose: 222.0 mg/kg/injection, schedule: Q01DX Z (ip), vehicle: saline 104 % of control | dose: 333.0 mg/kg/injection, schedule: Q01DX Z (ip), vehicle: saline 91 % of control

CN(C(=O)c1ccccc1C(=O)N(C)c1ccccc1)c1ccccc1
inactive: [2] 109 % of control | [3] 109 % of control | [12] 97 % of control

Cc1cccc2c1C(=S)NC2=O
inactive: dose: 100.0 mg/kg/injection, schedule: Q04DX002 (ip), vehicle: saline with Tween-80 103 % of control | dose: 200.0 mg/kg/injection, schedule: Q04DX002 (ip), vehicle: saline with Tween-80 100 % of control | dose: 400.0 mg/kg/injection, schedule: Q04DX002 (ip), vehicle: saline with Tween-80 89 % of control

CCCCCCCCCCCCCCCCCSc1cccc(C)c1
inactive: [6] 93 % of control | [8] 88 % of control

O=C(CSc1cc(Cl)ccc1Cl)Nc1cccc(Br)c1
inactive: dose: 50.0 mg/kg/injection, schedule: Q04DX003 (ip), vehicle: other 86 % of control | dose: 100.0 mg/kg/injection, schedule: Q04DX003 (ip), vehicle: other 90 % of control and 92 % of control | dose: 200.0 mg/kg/injection, schedule: Q04DX003 (ip), vehicle: other 89 % of control | dose: 400.0 mg/kg/injection, schedule: Q04DX003 (ip), vehicle: other 87 % of control

CN1c2cccc[c]2[Sn]([c]2ccccc2)([c]2ccccc2)[c]2ccccc21
inactive: dose: 100.0 mg/kg/injection, schedule: Q01DX001 (ip), vehicle: steriod suspending solution 94 % of control | dose: 200.0 mg/kg/injection, schedule: Q01DX001 (ip), vehicle: steriod suspending solution 94 % of control | dose: 400.0 mg/kg/injection, schedule: Q01DX001 (ip), vehicle: steriod suspending solution 100 % of control

CC(=O)Oc1c2c(c(OC(C)=O)c3c1C(=O)c1ccccc1C3=O)CCCC2
inactive: [2] 98 % of control | [3] 92 % of control | [12] 98 % of control

C/C(=C\Cl)CN(C)S(=O)(=O)c1ccc(Br)cc1
inactive: dose: 100.0 mg/kg/injection, schedule: Q01DX001 (ip), vehicle: saline with Tween-80 100 % of control and 98 % of control | [5] 94 % of control | dose: 200.0 mg/kg/injection, schedule: Q01DX001 (ip), vehicle: saline with Tween-80 94 % of control and 95 % of control | [7] 89 % of control | dose: 400.0 mg/kg/injection, schedule: Q01DX001 (ip), vehicle: saline with Tween-80 96 % of control and 98 % of control

From PubChem BioAssay AID248 (DTP/NCI, 2004)
